# Measured values published in PubChem BioAssay AID504822 (The Scripps Research Institute Molecular Screening Center, 2011).
# The source made the active and inactive calls.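 Rule for the calls: active = EC50 for procaspase-7 activation at or below 10 µM; inactive = EC50 above 10 µM.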
# Molecular target: Caspase-7 (Homo sapiens) (UniProt P55210)
# Assay: procaspase-7 activation potency, dual candidates – biochemical, absorbance, PC-7 D3A triple mutant, powder samples, late-stage follow-up (AID 504822)
# Settings: recombinant procaspase-7 D3A, Ac-DEVD-pNA absorbance
# Caspase-7 (Homo sapiens), sequence (P55210 whole entry D23A/D198A/D206A): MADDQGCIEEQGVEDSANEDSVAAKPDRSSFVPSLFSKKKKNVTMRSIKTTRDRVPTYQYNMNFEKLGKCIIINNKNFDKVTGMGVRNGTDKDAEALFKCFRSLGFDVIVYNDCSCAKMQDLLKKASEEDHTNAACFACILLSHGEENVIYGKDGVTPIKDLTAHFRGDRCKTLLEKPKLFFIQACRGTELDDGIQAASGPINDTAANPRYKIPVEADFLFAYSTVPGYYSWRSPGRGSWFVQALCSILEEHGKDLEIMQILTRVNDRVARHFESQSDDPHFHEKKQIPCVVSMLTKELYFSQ
row,SMILES,EC50
1,O=C(C1=NN(c2ccccc2)C2C(=O)N(c3ccccc3)C(=O)C12)c1ccccc1 (stereo not given),> 85.3 µM (inactive)
2,COC(=O)C1=NN(c2ccc(Cl)cc2)C2C(=O)N(c3ccccc3OC)C(=O)C12 (stereo not given),> 85.3 µM (inactive)
3,O=C(Nc1ccc(Cc2ccncc2)cc1)C1CCC(N2C(=O)C3C4C=CC(C5CC45)C3C2=O)CC1 (stereo not given),> 85.3 µM (inactive)

# Further lines, results first:
row,EC50,SMILES
1,4.49 µM,Cc1[nH]nc2c1C(c1c[nH]c3ccccc13)C(C#N)=C(N)O2 (stereo not given)
2,> 85.3 µM (inactive),COc1ccccc1N1C(=O)C2C(C(=O)c3ccccc3)=NN(c3ccccc3)C2C1=O (stereo not given)
